According to ChEMBL document CHEMBL5226330, “Synthesis of Oxazino[4,3-a]indoles and biological applications” (2021):

Species: Mus musculus
Assay: Antidepressant activity against […] Swiss albino mouse model assessed as […]
Type: functional

Compound | ED50
CNCCC1(C)OCCn2c1c(C)c1ccccc12.Cl (stereo not drawn) | 0.5 mg/kg
Cc1c2n(c3ccccc13)CCOC2(C)CCN(C)C.Cl (stereo not drawn) | 2 mg/kg
Cc1c2n(c3ccccc13)CCOC2(C)CCCN(C)C.Cl (stereo not drawn) | 2.9 mg/kg
